{
  "source": "patent US20220323400A1",
  "about": "“INHIBITORS OF SGLT AND USES THEREOF” (The Regents of the University of Michigan, priority 2019, published 2022)",
  "key": {"CF rabbits [1]": {"system": "CF rabbits", "assay": "Blood chemistry of CF rabbits treated with Sota for 10 weeks", "format": "in vivo, rabbit", "conditions": "5 CF rabbits treated 10 weeks vs untreated control group, FIG. 11", "description": "It is known that many CF patients show abnormalities in their blood chemistry tests. Blood chemistry in CF rabbits was also examind. In one study, blood was collected from 5 CF rabbits for the analysis of chemical panels including electrolytes, glucose and other metabolic parameters, and compared with those of WT rabbits (n=15). CF rabbits presented many abnormalities in metabolic parameters including lower serum potassium (WT 4.35±0.25 vs. CF 3.14±0.3, p<0.05), higher triglyceride (WT 75.8±69.5 vs. CF 447.0±76.6, p<0.05), cholesterol (WT 31.6±9.76 vs. CF 177.2±206.3, p<0.05) and glucose (WT 110.4±9.99 vs. CF 160.6±37.5, p<0.05). Abnormalities of serum ALP, CPK and Calcium were also detected in CF rabbits.\nTo evaluate if Sota has any effects on the blood chemistry parameters of CF rabbits, experiments were conducted wherein 5 CF rabbits were treated with Sota for 10 weeks."}, "CF rabbits [2]": {"system": "CF rabbits", "assay": "Blood chemical panels in CF rabbits treated with LX4211", "format": "in vivo, rabbit", "method": "(§1) ) has beneficial effects on treating CF, 5 CF rabbits were daily gavaged with LX4211 (15 mg/kg/day) for 4 weeks. The intravenous glucose tolerance test (IVGTT) and insulin tolerance test (ITT) were performed before treatment and at 4 weeks after treatment. Urine was collected daily to assess urinary glucose excretion. Blood was collected biweekly for the analysis of chemical panels including glucose, insulin, liver function, kidney function, lipid profiles and electrolytes. At the end of the experiment, the organ tissues of CF rabbits were collected for histology staining.\nAbnormalities of serum ALP, CPK and Calcium were also detected in CF rabbits."}, "CF rabbits [3]": {"system": "CF rabbits", "assay": "Intravenous glucose tolerance test (IVGTT) in CF rabbits treated with LX4211", "format": "in vivo, rabbit", "conditions": "FIG. 1", "method": "as §1"}, "CF rabbits [4]": {"system": "CF rabbits", "format": "in vivo, rabbit", "method": "as §1\nBecause most CF rabbits eventually die of gut obstruction for which abdominal hardening (which can be felt by palpation) has been used as a clinical sign, such softening may indicate beneficial effects on alleviating GI obstruction, although further studies are needed to confirm this predication."}, "CF rabbits [5]": {"system": "CF rabbits", "assay": "Urinary glucose excretion in CF rabbits treated with LX4211", "format": "in vivo, rabbit", "conditions": "15 mg/kg/day daily gavage", "method": "as §1"}, "CF rabbits [6]": {"system": "CF rabbits", "assay": "Lifespan (survival curve) of Sota-treated CF rabbits", "format": "in vivo, rabbit", "conditions": "treatment starting on Day 49 of age", "description": "This is further supported by the elongated lifespan of Sota-treated CF rabbits. […] These findings indicate that contrary to the beliefs by many, the SGLT inhibitor drugs are indicative of bringing benefits with minimal risks to CF patients."}, "[7]": {"conditions": "rabbit, in vivo"}, "CF rabbits [8]": {"system": "CF rabbits", "assay": "Survival length of CF rabbits treated with LX4211", "format": "in vivo, rabbit", "conditions": "FIG. 3"}, "WT rabbits": {"system": "WT rabbits", "assay": "Urine sugar levels in WT rabbits after Sota treatment", "format": "in vivo, rabbit", "conditions": "WT rabbits (n=2)", "method": "Experiments were conducted that first examined the physiological responses of rabbits to Sota by measuring the urine sugar levels to assess urinary glucose excretion (FIG. 9). Sota was given to WT rabbits (n=2) daily for five days. […] This confirmed that rabbits respond to Sota similarly as rodents and human patients."}, "CF rabbits [9]": {"system": "CF rabbits", "assay": "IVGTT in CF rabbits prior to and after Sota treatment", "format": "in vivo, rabbit", "conditions": "CF rabbits (n=6), 15 mg/kg/day daily gavage 4 weeks, vs non-treatment, FIGS. 10B & C", "method": "Experiments were conducted that next proceeded to treat CF rabbits (n=6) with Sota (15 mg/kg/day) by daily gavage for 4 weeks (FIG. 10A). The IVGTT test was performed prior to and 4 weeks after treatment."}},
  "data": [
    {"substance": "Sotagliflozin [LX4211]", "values": [
      {"measurement": "ALP", "setting": "CF rabbits [1]", "value": "significantly improved"},
      {"measurement": "CPK", "setting": "CF rabbits [1]", "value": "significantly improved"},
      {"measurement": "Chol", "setting": "CF rabbits [1]", "value": "significantly improved"},
      {"measurement": "Glucose", "setting": "CF rabbits [1]", "value": "significantly improved"},
      {"measurement": "K+", "setting": "CF rabbits [1]", "value": "significantly improved"},
      {"measurement": "Trig", "setting": "CF rabbits [1]", "value": "significantly improved"},
      {"measurement": "CPK", "setting": "CF rabbits [2]; 15 mg/kg/day, FIG. 4", "value": "significant rescue effects"},
      {"measurement": "Calcium", "setting": "CF rabbits [2]; 15 mg/kg/day, FIG. 4", "value": "significant rescue effects"},
      {"measurement": "cholesterol", "setting": "CF rabbits [2]; 15 mg/kg/day, FIG. 4", "value": "significant rescue effects"},
      {"measurement": "triglyceride", "setting": "CF rabbits [2]; 15 mg/kg/day, FIG. 4", "value": "significant rescue effects"},
      {"measurement": "hyperglycemia (glucose)", "setting": "CF rabbits [2]; 15 mg/kg/day, FIG. 4, FIG. 5", "value": "significantly attenuated"},
      {"measurement": "hypokalemia (serum potassium)", "setting": "CF rabbits [2]; 15 mg/kg/day, FIG. 4, FIG. 5", "value": "significantly attenuated"},
      {"measurement": "ALB (Albumin)", "setting": "CF rabbits [2]; FIG. 6", "value": "restored"},
      {"measurement": "TPRO (Total Protein)", "setting": "CF rabbits [2]; FIG. 6", "value": "restored"},
      {"measurement": "glucose tolerance", "setting": "CF rabbits [3]; CF rabbits, 15 mg/kg/day, before vs 4 weeks after treatment", "value": "restored glucose tolerance"},
      {"measurement": "GTT response of one CF rabbit with signs of CF related diabetes (CFRD)", "setting": "CF rabbits [3]; one CF rabbit, prior to vs after treatment", "value": "restored to normal"},
      {"measurement": "daily abdominal palpation", "setting": "CF rabbits [4]; CF rabbits, 15 mg/kg/day daily gavage, abdominal hardening is a clinical sign of gut obstruction", "value": "softening of the abdominal"},
      {"measurement": "adverse response to treatment", "setting": "CF rabbits [4]; rabbit, in vivo, 15 mg/kg/day", "value": "no obvious adverse response"},
      {"measurement": "urine glucose levels", "setting": "CF rabbits [5]", "value": "spiked starting D1 after the treatment"},
      {"measurement": "median lifespan", "setting": "CF rabbits [6]; CF rabbits (n=10), FIG. 12 right panel", "value": "> 150", "unit": "days"},
      {"measurement": "number of treated CF rabbits that lived beyond 150 days", "setting": "CF rabbits [6]; of n=10 CF rabbits", "value": 6},
      {"measurement": "weight gain", "setting": "[7]", "value": "gained weight at a similar rate"},
      {"measurement": "survival length", "setting": "CF rabbits [8]", "value": "improved survival length"},
      {"measurement": "urine sugar level upon retrieval of the drug", "setting": "WT rabbits; D7, FIG. 9", "value": "immediately returned to normal"},
      {"measurement": "urine sugar level during treatment", "setting": "WT rabbits; daily for five days, D1-D5, FIG. 9", "value": "spike of urine sugar level was seen the second day (D1) and remained high during the treatment days"},
      {"measurement": "blood glucose elimination rate (IVGTT)", "setting": "CF rabbits [9]", "value": "significantly higher"}
    ]}
  ]
}
